US4612330A, “Antiinflammatory method” (Eli Lilly and Company, priority 1985, dated 1986)

Tests used:
[1] = test system: adjuvant-induced arthritis in rats, uninjected hind paw; experiment: Developing adjuvant-induced arthritis test in rats: uninjected hind paw volume; assay type: in vivo, male Lewis-Wistar rats; details: 10 mg/kg I.P. × 29 daily doses; difference of areas under the curves of mean uninjected paw volumes, TB controls vs treated
hind paws of rats = experiment: carrageenin-induced edema test; assay type: in vivo; details: for inhibition of paw swelling: 50 mg/kg, administered prior to carrageenin, vs contralateral (control) paws; for anti-inflammatory activity (in words): carrageenin-induced edema, rats
Procedure: It has now been discovered that Punaglandin-1 and -2 are useful in the treatment of inflammation and arthritis in mammals. […] A. Winter, Proc. Soc. Exp. Biol. Med., 111, 544 (1962). In this method, inflammation is induced by injecting carrageenin into one of the hind paws of rats. Test compounds were administered prior to the carrageenin injection to determine the percent inhibition of the subsequent inflammation, in comparison with the animals' contralateral (control) paws.

| SMILES | % Inhibition of Uninjected Paw Volume Inflammation, Days 16 through 30 [1] [%] | inhibition of paw swelling (hind paws of rats; intraperitoneal) [%] | inhibition of paw swelling (hind paws of rats; subcutaneous) [%] | anti-inflammatory activity (in words) (hind paws of rats) |
| --- | --- | --- | --- | --- |
| CC/C=C\C/C=C\CC1(O)C=C(Cl)C(=O)C1C(OC(C)=O)C(OC(C)=O)C(CCCC(=O)OC)OC(C)=O (centres unmarked) [Punaglandin-1, 5,6,7-tris(acetyloxy)-7-(4-chloro-2-hydroxy-2-[2(Z),5(Z)-octadienyl]-5-oxo-3-cyclopenten-1-yl)heptanoic acid, methyl ester] | 56.7 | 79.6 | 62.1 | anti-inflammatory activity |
| CCCCC/C=C\CC1(O)C=C(Cl)C(=O)C1C(OC(C)=O)C(OC(C)=O)C(CCCC(=O)OC)OC(C)=O (centres unmarked) [Punaglandin-2, 5,6,7-tris(acetyloxy)-7-(4-chloro-2-hydroxy-2-[2-(Z)-octenyl]-5-oxo-3-cyclopenten-1-yl)heptanoic acid, methyl ester] | – | – | – | anti-inflammatory activity |
